For the assay, the target named is T1, human mPGES-1 (Homo sapiens, UniProt O14684).
T1 sequence (O14684 1-152): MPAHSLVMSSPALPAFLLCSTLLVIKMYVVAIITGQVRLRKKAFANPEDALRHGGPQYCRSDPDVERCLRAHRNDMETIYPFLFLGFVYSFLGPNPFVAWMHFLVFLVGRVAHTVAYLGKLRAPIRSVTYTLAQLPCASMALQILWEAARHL
Description: Microsomal prostaglandin E synthase biochemical assay. The conditions noted are these: microsome preparation containing human mPGES-1; PGH2 10.8 μM, GSH 2.5 mM, pH 6.8; PGE2 by HTRF; average of at least n=2. How it is done: Compounds were tested as inhibitors of microsomal prostaglandin E synthase activity in microsomal prostaglandin E synthase assays and whole cell assays. These assays measure prostaglandin E2 (PGE2) synthesis which is taken as a measure of prostaglandin E synthase activity. Microsomal prostaglandin E synthase biochemical assays used microsomal prostaglandin E synthase-1 in microsomal preparations. The source of the microsomes can be for example interleukin-1β-stimulated human A549 cells (which express human mPGES-1) or Sf9 cells transfected with plasmids encoding human mPGES-1 cDNA. The whole blood assay [described by Patrignani, P. et al., Journal of Pharmacology and Experimental Therapeutics, 1994, vol. 271, pp 1705-1712] was used as the whole cell assay for testing the compounds. Whole blood provides a protein and cell rich milieu for the study of biochemical efficacy of anti-inflammatory compounds such as prostaglandin synthase inhibitors. To study the inhibitory activities of these compounds, human blood was stimulated with lipopolysaccharide (LPS) for typically 16 hours to induce mPGES-1 expression, after which the concentration of produced PGE2 was measured by competitive-immuno assay (homogeneous time-resolved fluorescence, HTRF) as read out for effectiveness against mPGES-1-dependent PGE2 production.
Microsomal Prostaglandin E Synthase Biochemical Assay
A solution of test compound was added to a diluted microsome preparation containing human mPGES-1 and pre-incubated for 15 minutes in potassium phosphate buffer pH 6.8 with cofactor glutathione (GSH). Corresponding solutions without test compound were used as positive controls, and corresponding solutions without test compound and without microsomes were used as negative controls. The enzymatic reaction was then started by addition of the substrate PGH2 in an organic solution (dry acetonitrile).
The typical reaction conditions of the enzymatic reaction were thus: Test compound: ranging from 60 μM to 0.002 μM, or zero in positive and negative controls; potassium phosphate buffer pH 6.8: 50 mM; GSH: 2.5 mM; mPGES-1-containing microsomes: 2 μg/mL (sample and positive controls) or 0 μg/mL (negative control); PGH2: 10.8 μM; Acetonitrile: 7.7% (v/v); DMSO: 0.6% (v/v). The reaction was stopped after one minute by adding an acidic solution (pH 1.9) of ferric chloride and citrate (final concentrations 7 mM and 47 mM respectively), by which the PGH2 was sequestered (the PGH2 is reduced to mainly 12-hydroxy heptadecatrineoic acid (12-HHT) which is not detected by the subsequent PGE2 detection step). The resulting solution was then pH neutralized by addition of potassium phosphate buffer, prior to diluting an aliquot of the resulting solution in a weak potassium phosphate buffer (50 mM, pH 6.8) containing 0.2% BSA (w/v). [Adapted from Jacobsson et al., Proc. Natl. Acad. Sci. USA, 1999, vol. 96, pp. 7220-7225]The PGE2 formed was quantified by use of a commercial HTRF based kit (catalogue #62PG2PEC or #62P2APEC from Cisbio International). 100% activity was defined as the PGE2 production in positive controls subtracted by the PGE2 production in the negative controls. IC50 values were then determined using standard procedures.
The potency is expressed as IC50 and the value indicated is an average of at least n=2.
On the technique in general: In TR-FRET formats the signal depends on donor and acceptor labels being close together.

The values that follow come from patent US20090163586A1, “Bis-(Sulfonylamino) Derivatives in Therapy 205” (AstraZeneca AB, priority 2007, published 2009).

One may read the IC50 as the concentration that inhibits the measured activity by half.

For the molecule `Cc1ccc(NS(=O)(=O)/C=C/c2cccc(Cl)c2)c(S(N)(=O)=O)c1` [Example 63, 2-[[(E)-2-(3-Chlorophenyl)ethenyl]sulfonylamino]-5-methyl-benzenesulfonamide], half-maximal inhibition (IC50) was put at 3 µM.

Molecule `NS(=O)(=O)c1cccc(F)c1NS(=O)(=O)/C=C/c1cccc(Cl)c1` [Example 64, 2-[[(E)-2-(3-Chlorophenyl)ethenyl]sulfonylamino]-3-fluoro-benzenesulfonamide] gave an IC50 of 3.1 µM.

In turn, `NS(=O)(=O)c1cccc(F)c1NS(=O)(=O)/C=C/c1cccc(C(F)(F)F)c1` [Example 65, 3-Fluoro-2-[[(E)-2-[3-(trifluoromethyl)phenyl]ethenyl]sulfonylamino]-benzenesulfonamide] came in with an IC50 of 3.8 µM.

In the case of `NS(=O)(=O)c1c(F)cccc1NS(=O)(=O)/C=C/c1cccc(C(F)(F)F)c1` [Example 66, 2-Fluoro-6-[[(E)-2-[3-(trifluoromethyl)phenyl]ethenyl]sulfonylamino]-benzenesulfonamide], the midpoint of inhibition, the IC50, lay at 6.2 µM.

The molecule `NS(=O)(=O)c1ccc(F)cc1NS(=O)(=O)/C=C/c1ccccc1F` [Example 67, 4-Fluoro-2-[[(E)-2-(2-fluorophenyl)ethenyl]sulfonylamino]benzenesulfonamide] came in with an IC50 of 6.4 µM.

In the case of `Cc1ccc(NS(=O)(=O)/C=C/c2cccc(C(F)(F)F)c2)c(S(N)(=O)=O)c1` [Example 68, 5-Methyl-2-[[(E)-2-[3-(trifluoromethyl)phenyl]ethenyl]sulfonylamino]-benzenesulfonamide], inhibition was half-maximal at 9.1 µM (IC50).

The molecule `NS(=O)(=O)c1ccccc1NS(=O)(=O)CCc1ccc(C2CCCC2)cc1` [Example 69, 2-[2-(4-Cyclopentylphenyl)ethylsulfonylamino]benzenesulfonamide] came in with an IC50 of 0.27 µM.

In turn, `CC(C)(C)c1ccc(CCS(=O)(=O)Nc2ccccc2S(N)(=O)=O)cc1` [Example 70, 2-[2-(4-Tert-butylphenyl)ethylsulfonylamino]benzenesulfonamide] returned an IC50 of 0.22 µM.

Turning to `CC(C)(C)c1ccc(CCS(=O)(=O)Nc2cc(F)ccc2S(N)(=O)=O)cc1` [Example 71, 4-Fluoro-2-[2-(4-tert-butylphenyl)ethylsulfonylamino]benzenesulfonamide], the IC50 worked out at 0.3 µM.

Turning to `NS(=O)(=O)c1ccccc1NS(=O)(=O)CCc1ccc(Cl)cc1` [Example 72, 2-[2-(4-Chlorophenyl)ethylsulfonylamino]benzenesulfonamide], the IC50 amounted to 0.49 µM.

For `NS(=O)(=O)c1ccccc1NS(=O)(=O)/C=C/c1ccc(Cl)cc1` [Example 73, 2-[[(E)-2-(4-Chlorophenyl)ethenyl]sulfonylamino]benzenesulfonamide], it took 0.29 µM to reach half-maximal inhibition (IC50).

In turn, `NS(=O)(=O)c1ccccc1NS(=O)(=O)CCc1ccccc1` [Example 74, 2-(Phenethylsulfonylamino)benzenesulfonamide] registered an IC50 of 9.8 µM.

Consider `NS(=O)(=O)c1ccccc1NS(=O)(=O)/C=C/c1ccccc1` [Example 75, 2-[[(E)-2-Phenylethenyl]sulfonylamino]benzenesulfonamide], for which it took 2.6 µM to reach half-maximal inhibition (IC50).

In turn, `NS(=O)(=O)c1ccccc1NS(=O)(=O)CCc1ccccc1Cl` [Example 76, 2-[2-(2-Chlorophenyl)ethylsulfonylamino]benzenesulfonamide] yielded an IC50 of 1.2 µM.

For `COc1ccc(/C=C/S(=O)(=O)Nc2ccccc2S(N)(=O)=O)cc1` [Example 77, 2-[[(E)-2-(4-Methoxyphenyl)ethenyl]sulfonylamino]benzenesulfonamide], the IC50 is 3.1 µM.

Regarding `NS(=O)(=O)c1ccc(F)cc1NS(=O)(=O)/C=C/c1ccc(Cl)cc1` [Example 78, 2-[[(E)-2-(4-Chlorophenyl)ethenyl]sulfonylamino]-4-fluoro-benzenesulfonamide], the IC50 was determined as 0.35 µM.

In turn, `CC(CS(=O)(=O)Nc1ccccc1S(N)(=O)=O)c1ccccc1` (centres unmarked) [Example 79, 2-(2-Phenylpropylsulfonylamino)benzenesulfonamide] showed an IC50 of 9.9 µM.

With `NS(=O)(=O)c1c(F)cccc1NS(=O)(=O)/C=C/c1ccc(Cl)cc1` [Example 80, 2-[[(E)-2-(4-Chlorophenyl)ethenyl]sulfonylamino]-6-fluoro-benzenesulfonamide], the IC50 came to 0.57 µM.

`NS(=O)(=O)c1ccccc1NS(=O)(=O)/C=C/c1c(Cl)cccc1Cl` [Example 81, 2-[[(E)-2-(2,6-Dichlorophenyl)ethenyl]sulfonylamino]benzenesulfonamide] registered an IC50 of 2.9 µM.

The molecule `Cc1ccc(/C=C/S(=O)(=O)Nc2ccccc2S(N)(=O)=O)cc1` [Example 82, 2-[[(E)-2-(4-Methylphenyl)ethenyl]sulfonylamino]benzenesulfonamide] had an IC50 of 7.3 µM.

On to `COc1ccccc1/C=C/S(=O)(=O)Nc1ccccc1S(N)(=O)=O` [Example 83, 2-[[(E)-2-(2-Methoxyphenyl)ethenyl]sulfonylamino]benzenesulfonamide], for which the IC50 came out at 0.43 µM.

`NS(=O)(=O)c1ccccc1NS(=O)(=O)/C=C/c1ccc2ccccc2c1` [Example 84, 2-[[(E)-2-Naphthalen-2-ylethenyl]sulfonylamino]benzenesulfonamide] gave an IC50 of 0.19 µM.

Take `NS(=O)(=O)c1ccc(F)cc1NS(=O)(=O)CCc1ccc(Cl)cc1` [Example 85, 2-[2-(4-Chlorophenyl)ethylsulfonylamino]-4-fluoro-benzenesulfonamide]: 0.8 µM corresponded to half-maximal inhibition (IC50).

Consider `C/C(=C\S(=O)(=O)Nc1ccccc1S(N)(=O)=O)c1ccc(Cl)cc1` [Example 86, 2-[[(E)-2-(4-Chlorophenyl)prop-1-enyl]sulfonylamino]benzenesulfonamide], for which the IC50 was found to be 0.7 µM.

`C=C(CS(=O)(=O)Nc1ccccc1S(N)(=O)=O)c1ccc(Cl)cc1` [Example 87, 2-[2-(4-Chlorophenyl)prop-2-enylsulfonylamino]benzenesulfonamide] registered an IC50 of 2.4 µM.

In the case of `NS(=O)(=O)c1c(F)cccc1NS(=O)(=O)/C=C/c1ccc2ccccc2c1` [Example 88, 2-Fluoro-6-[[(E)-2-naphthalen-2-ylethenyl]sulfonylamino]benzenesulfonamide], half-maximal inhibition (IC50) was put at 1.3 µM.

The molecule `NS(=O)(=O)c1c(F)cccc1NS(=O)(=O)/C=C/c1ccccc1C(F)(F)F` [Example 89, 2-Fluoro-6-[[(E)-2-[2-(trifluoromethyl)phenyl]ethenyl]sulfonylamino]-benzenesulfonamide] yielded an IC50 of 2.8 µM.

Regarding `NS(=O)(=O)c1c(F)cccc1NS(=O)(=O)/C=C/c1ccc(C(F)(F)F)cc1` [Example 90, 2-Fluoro-6-[[(E)-2-[4-(trifluoromethyl)phenyl]ethenyl]sulfonylamino]-benzenesulfonamide], the midpoint of inhibition, the IC50, lay at 0.87 µM.

`NS(=O)(=O)c1c(F)cccc1NS(=O)(=O)/C=C/c1ccc(Br)cc1` [Example 91, 2-[[(E)-2-(4-Bromophenyl)ethenyl]sulfonylamino]-6-fluoro-benzenesulfonamide] came in with an IC50 of 0.31 µM.

The molecule `NS(=O)(=O)c1ccc(F)cc1NS(=O)(=O)/C=C/c1ccc2ccccc2c1` [Example 92, 4-Fluoro-2-[[(E)-2-naphthalen-2-ylethenyl]sulfonylamino]benzenesulfonamide] showed an IC50 of 0.091 µM.

Molecule `NS(=O)(=O)c1ccc(F)cc1NS(=O)(=O)/C=C/c1ccccc1C(F)(F)F` [Example 93, 4-Fluoro-2-[[(E)-2-[2-(trifluoromethyl)phenyl]ethenyl]sulfonylamino]-benzenesulfonamide] gave an IC50 of 0.65 µM.

`NS(=O)(=O)c1ccc(F)cc1NS(=O)(=O)/C=C/c1ccc(C(F)(F)F)cc1` [Example 94, 4-Fluoro-2-[[(E)-2-[4-(trifluoromethyl)phenyl]ethenyl]sulfonylamino]-benzenesulfonamide] came in with an IC50 of 0.65 µM.
